Source: patent US20180177749A1, “USE OF CYP EXPRESSION TO DIRECT THERAPEUTIC INTERVENTION IN CANCER” (REGENTS OF THE UNIVERSITY OF MINNESOTA, priority 2016, published 2018)
Like-named read-outs stand apart in the source and are kept apart here.

Key:
[1] = biological target: T1, CYP4A11 (Homo sapiens, UniProt Q02928); assay: CYP4A11-mediated EET biosynthesis; format: biochemical; details: 25 to 100 uM
T1 sequence (Q02928 5-519): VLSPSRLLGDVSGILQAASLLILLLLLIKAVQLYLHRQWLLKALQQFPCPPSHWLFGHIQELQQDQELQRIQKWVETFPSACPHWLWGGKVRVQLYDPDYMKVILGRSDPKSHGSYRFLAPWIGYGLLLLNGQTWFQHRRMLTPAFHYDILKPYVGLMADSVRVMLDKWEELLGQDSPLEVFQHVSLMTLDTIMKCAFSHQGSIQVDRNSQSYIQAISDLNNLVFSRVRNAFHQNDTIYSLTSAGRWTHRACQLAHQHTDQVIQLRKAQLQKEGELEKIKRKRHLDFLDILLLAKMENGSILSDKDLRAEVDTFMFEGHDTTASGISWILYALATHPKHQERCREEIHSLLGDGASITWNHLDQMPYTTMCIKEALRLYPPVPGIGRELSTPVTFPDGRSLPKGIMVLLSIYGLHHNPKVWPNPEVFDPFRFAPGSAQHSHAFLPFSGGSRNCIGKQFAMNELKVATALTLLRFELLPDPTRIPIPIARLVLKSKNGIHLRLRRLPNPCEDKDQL

[2] = tested on: MCF-7; assay: MTT cell proliferation assay, MCF-7; format: cell-based; details: Homo sapiens, MCF7
Method: Cells were grown at 37° C. in a 5% CO2 incubator. […] MTT was then added (5 mg/ml), and after 2 h of incubation, the plates were centrifuged. The supernatant was removed; DMSO was added, and the absorbance was read at 540 nm with a BioTek 96-well plate reader.

[3] = tested on: MCF-10A; assay: Cell growth inhibition, MCF-10A non-transformed breast cell line; format: cell-based; details: Homo sapiens, ER−[PR−]
[4] = biological target: T2, CYP3A4 vs CYP2C8 (Homo sapiens, UniProt P08684); assay: Recombinant microsomal CYP-mediated EET biosynthesis (CYP3A4 Supersomes); format: biochemical; details: human, CYP3A4 or CYP2C8 Supersomes (recombinant microsomes), pH 7.4, probe arachidonic acid (AA), 5 μM; CYP3A4 vs CYP2C8; read-out: selectivity for CYP3A4 epoxygenase activity
T2 construct: host or cells: insect cells (microsomes)
T2 sequence (P08684 whole entry): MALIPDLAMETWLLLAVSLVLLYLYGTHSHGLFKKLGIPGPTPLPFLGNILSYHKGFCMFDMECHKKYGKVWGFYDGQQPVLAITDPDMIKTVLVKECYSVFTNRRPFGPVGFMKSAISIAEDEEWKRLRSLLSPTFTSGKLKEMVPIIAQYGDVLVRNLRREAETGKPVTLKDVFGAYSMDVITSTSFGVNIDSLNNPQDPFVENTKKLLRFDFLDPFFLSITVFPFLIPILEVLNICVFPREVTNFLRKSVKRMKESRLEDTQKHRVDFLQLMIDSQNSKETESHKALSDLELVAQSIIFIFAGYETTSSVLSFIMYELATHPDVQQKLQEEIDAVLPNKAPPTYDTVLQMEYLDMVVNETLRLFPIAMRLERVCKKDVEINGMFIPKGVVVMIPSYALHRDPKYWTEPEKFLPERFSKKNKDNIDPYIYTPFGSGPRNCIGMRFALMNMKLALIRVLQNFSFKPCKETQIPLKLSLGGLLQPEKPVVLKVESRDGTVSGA
Description: (§1) Samples were submitted to liquid chromatography-electrospray ionization/multiple reaction monitoring/mass spectrometry (LC-ESI/MRM/MS) analysis in a Thermo Electron Quantum Discovery Max triple quadrupole mass spectrometer (Thermo Finnigan, San Jose, Calif.) coupled with an Agilent 1100 HPLC (Santa Clara, Calif.), using argon as the collision gas. […] A standard curve was obtained by linear regression of the peak area ratio of authentic EET regioisomers against internal standards. The amount of EETs in samples was calculated according to the standard curve. The (±)-5,6-EET regioisomer was not measured because it undergoes rapid internal degradation.
(§2) CYP3A4 or 2C8 Supersomes™ (BD Biosciences) were incubated at 37° C. for 30 min in the presence of AA (5 μM) in […] Tris-HCl, pH 7.4, containing 1 mm EDTA and 1 mm NADPH. Reactions were terminated by adding methylene chloride (0.5 ml). Samples were centrifuged at 3,000 rpm for 10 min and 150 μl of the organic phases were evaporated under nitrogen. Samples were reconstituted in 20 μl of MeOH containing [^13C20]EET internal standards and submitted to a Thermo Electron Quantum Discovery Max triple quadrupole mass spectrometer (Thermo Finnigan, San Jose, Calif.) coupled with an Agilent 1100 HPLC (Santa Clara, Calif.) for analysis. […] Concentrations of EETs generated by CYP Supersomes™ were calculated by linear regression against standard curve generated with EET standards.

[5] = biological target: T3, CYP3A4 (Homo sapiens, UniProt P08684); assay: as above; format: biochemical; details: for IC50: microsomal CYP3A4
T3 construct: host or cells: insect cells (microsomes)
T3 sequence (P08684 whole entry): as above
Description: as §1, §2

[6] = tested on: MCF-7 cells; assay: JC-1 mitochondrial membrane potential staining, MCF-7; format: cell-based, human; details: HBB 20 μM 4 hours, (±)-14,15-EET 1 μM
Method: Cells were grown in chamber slides at 37° C. with 5% CO2 and treated with DMSO or HBB for 4 hours before JC-1 dye was added for the MCF-7 or MDA-MB-231 cell line. […] Images of red fluorescence (590 nm) and green fluorescence (530 nm) were acquired using an Olympus 1X70 microscope fitted with an Olympus DP70 digital camera (Olympus, Tokyo, Japan).

[7] = tested on: MDA-MB-231 cells; assay: Measurement of OCR and ECAR, MDA-MB-231; format: cell-based, human; details: t-AUCB 2.5, 5 μM, HBB 20, 40 μM
Method: Cells were maintained in growth medium consisting of 10% FBS at 37° C. with 5% CO2 and seeded at 100,000 cells per well in XF24-well cell culture microplates (Seahorse Bioscience, North Billirica, Mass.). Concentrated stocks of HBB were prepared in DMSO. HBB was diluted to 10× working concentration in XF assay medium (a non-buffered medium including 2 mM L-glutamine but no sodium bicarbonate (buffering agent), glucose, or sodium pyruvate). Assays were performed in the XF Extracellular Flux Analyzer (Seahorse Bioscience that measures uptake and excretion of metabolic end products in real time). Oxygen consumption rate (OCR) and extracellular acidification rate (ECAR) were measured using an XF Assay Kit. OCR is reported in pmoles/minute and ECAR in mpH/minute. Before analysis, the cells were switched from culture medium to XF assay medium. After baseline measurements, 75 μl of HBB prepared in assay medium was injected into each well to reach final working concentrations. After addition of HBB, OCR and ECAR were measured at 18-minute intervals. […] There were 6 replicates for the studies of the 3-18 and 4-14 cell lines.

[8] = Plasma concentration after ip dosing; format: in vivo, mice; details: 1 hour after the daily dose, 4 mg/kg/day ip

In the case of `CCCCCCNC(=N)NC(=N)NCc1ccccc1` [HBB, N1-hexyl-N5-benzyl-biguanide], the “inhibition of EET production by CYP4A11” value [1] is reported as “only weakly”, the IC50 ([2]; MCF-7, ER+[PR+]HER2−, read-out: IC50) is reported as 20.1 µM and the IC50 ([2]; read-out: IC50 MCF-7) is reported as 20 µM. It also gave an IC50 [3] of 20.5 µM, a selectivity ratio at 30 min [4] of 5 to 7 and a Ki ([5]; CYP3A4 epoxygenase activity) of 9 µM. The IC50 ([5]; read-out: IC50, CYP3A4 synthesis of (±)-8,9-EET) was 9.5 µM, the IC50 ([5]; read-out: IC50, CYP3A4 synthesis of (±)-11,12-EET) was 8 µM and the “mitochondrial membrane potential (ΔΨm), JC-1” value [6] was “caused mitochondrial depolarization”. The “extracellular acidification rate (ECAR)” value [7] was “least inhibition of ECAR”, the “oxygen consumption rate (OCR)” value [7] was “significant vs. vehicle” and the plasma concentration [8] was 530 nM.
